Two compounds from US8242101B2, “Leukemia treatment method and composition” (University of South Florida, priority 2003, dated 2012) can be followed below.

In experiment [1] the test system is MV4-11 (MV) cells. Put plainly: Cell cycle status and apoptosis of MV4-11 cells. It is filed as cell-based, human.
The subject of experiment [2] is histone H3 and H4, p21. Put plainly: Histone acetylation and p21 levels in AML cells. It counts as cell-based, human. The settings on record: LAQ824 10 to 100 nM.
Experiment [3] concerns FLT-3 and p-FLT-3 in RS cells. The experiment can be described thus: FLT-3 and p-FLT-3 levels in RS cells by Western and FCM analyses. It counts as cell-based, human. Here is the method:
(§1) Simultaneous measurement of surface FLT-3 kinase and Phospho (P Y591) FLT-3 kinase in Acute Leukemic cells using a flow cytometric assay.
(§2) Leukemic cells are harvested by spinning at 1000 rpm at 4 deg for 5 minutes. The cells are washed twice with cold PBS (1×). Equal numbers of cells are utilized for FLT-3 and p-FLT-3 analyses.
(§3) In the assay to detect surface FLT-3 expression, shown in FIG. 8, the cells 10 are incubated on ice for thirty minutes 20 in PBS (1×) 30 containing 3% FBS (blocking buffer) 40. Subsequently, the cells are washed twice with cold PBS (1×). Cells are then incubated with either 0.2 Tg of anti-FLT-3 antibody 50 (sc-19635, Santa Cruz Biotechnology, Calif.) or concentration-matched isotype, control antibody (IgG1, Caltag, Burlingame, Calif.) 60 diluted in the blocking buffer and kept on ice for one hour 70. Cells are then washed twice in PBS (1×) and incubated in FITC-conjugated secondary antibody (Molecular Probes, Eugene, Oreg.) 80 for additional thirty minutes on ice 90. The cells are then rinsed twice with PBS (1×) and resuspended in 400 TL PBS (1×) 100. The fluorescence is measured by FACScan Cytometer (San Jose, Calif.).
To determine the p-FLT-3 expression, leukemia cells are fixed and permeabilized. […] After thirty minutes of incubation 110, cells are washed twice with PBS (1×) and resuspended in 400 TI of PBS (1×) 120 and analyzed by FACScan 130.

Experiment [4] deals with Hsp-90. Put plainly: Hsp-90 acetylation, ATP binding and chaperone activities. It counts as cell-based. As to conditions: earlier work of the inventors.
Experiment [5] has as its system p-FLT-3, p-AKT and p-ERK1/2. The experiment can be described thus: Western analyses of FLT-3, AKT, ERK1/2 and their phospho forms in MV cells. It is filed as cell-based, human.
Experiment [6] has as its system FLT-3 and p-FLT-3 on MV cells. The experiment can be described thus: Flow cytometry (FCM) assay of surface FLT-3 and p-FLT-3 on MV cells. It is filed as cell-based, human. The settings on record: for surface expression of p-FLT-3: FCM. Here is the method:
as §1, §2, §3
To determine the p-FLT-3 expression, leukemia cells are fixed and permeabilized. Referring now to the flowchart in FIG. 9, cells 10 are fixed in 1% formaldehyde 20 at 37 degrees for ten minutes 30, followed by incubation on ice for ten minutes. Cells are then spun down and permeabilized by resuspending them in ice cold 90% methanol 40 for thirty minutes. Following this, cells are washed twice in the blocking buffer (PBS (1×) containing 0.5% BSA) 50 and then incubated in the blocking buffer for an additional ten minutes at room temperature (RT) 60. Next, to the cells, either 0.4 Tg of monoclonal antibody to p-FLT-3 (Cell Signaling, Beverley, Mass.) 70 or isotype control antibody (IgG2b, Caltag, Burlingame, Calif.) 80 is added and cells are then incubated at RT for thirty minutes 90. […] After thirty minutes of incubation 110, cells are washed twice with PBS (1×) and resuspended in 400 TI of PBS (1×) 120 and analyzed by FACScan 130.
(In general: A flow cytometer gives signals particle by particle.)

Structures are written as SMILES. “Also recorded” adds a separate entry of the source.

For the compound `O=C(/C=C/c1ccc(CN(CCO)CCc2c[nH]c3ccccc23)cc1)NO` [LAQ824], the apoptosis entry in experiment [1] (MV4-11 cells, single agent, FIG. 2 and FIG. 3) is “induces apoptosis of MV4-11 cells; also recorded: inducing apoptosis of MV4-11 cells”. In experiment [2], the “acetylation of histone H3 and H4” value is “induced the acetylation of histone H3 and H4”; the p21 levels result is “increases p21; also recorded: increased p21 levels”. Further, the “FLT-3 and p-FLT-3 levels” value in experiment [3] was “attenuated both FLT-3 and p-FLT-3 levels in a dose-dependent manner”. Moreover, the “acetylation of Hsp-90, its ATP binding and chaperone activities” value in experiment [4] was “induces acetylation of Hsp-90 and inhibition of its ATP binding and chaperone activities”. Further, in experiment [5] (LAQ824 20 to 100 nM), the “levels of p-FLT-3, p-AKT and p-ERK1/2” value is “down regulated the levels of p-FLT-3, p-AKT and p-ERK1/2”. Moreover, the “FLT-3, P-AKT and P-ERK levels” value in experiment [5] (MV4-11 cells, immunoblots, FIG. 3) was “attenuates FLT-3, P-AKT, and P-ERK”. Further, the “surface expression of p-FLT-3” value in experiment [6] is on record as “attenuates cell surface p-FLY-3 expression”. Moreover, the “FLT-3 and p-FLT-3 levels” value in experiment [6] (Western and FCM analyses) is “attenuated both FLT-3 and p-FLT-3 levels in a dose-dependent manner”.

As for `CO[C@@H]1[C@H](N(C)C(=O)c2ccccc2)C[C@H]2O[C@]1(C)n1c3ccccc3c3c4c(c5c6ccccc6n2c5c31)C(=O)NC4` [PKC412], in experiment [1] (20 to 200 nM PKC412, dose-dependent), the “apoptosis, MV compared with RS cells” value is “significantly more apoptosis of MV than RS cells”. Moreover, in experiment [1] (exposure to 20 to 200 nM PKC412), the “cell cycle G1 phase accumulation” value is on record as “induced cell cycle G1 phase accumulation”. Moreover, the “p-FLT-3, p-AKT and p-ERK1/2 levels” value in experiment [5] (Western analyses, 20 to 200 nM PKC412) was “marked attenuation of p-FLT-3, p-AKT and p-ERK1/2”. Moreover, in experiment [6], the “surface expression of p-FLT-3” value is reported as “inhibited the surface expression of p-FLT-3”.
